Test results from patent US20260007133A1, “HERBICIDAL COMPOSITION COMPRISING AZINE COMPOUNDS” (BASF SE, priority 2022, published 2026).

Assays:
Format in all cases: in vivo
Geranium pusillum = experiment: Greenhouse post-emergence (POST) herbicidal test on GERPU; details: POST, GERPU, 20 DAT
Experimental: (§1) The culture containers used were plastic pots containing loamy sand with approximately 3.0% of humus as substrate. The seeds of the test plants were sown separately for each species.
(§2) For the post-emergence treatment, the test plants were grown to a plant height of from 3 to 15 cm, depending on the plant habit, and only then treated with the active compounds which had been suspended or emulsified in water. To this end, the test plants were either sown directly, and grown in the same containers, or they were first grown separately as seedlings and transplanted into the test containers a few days prior to treatment.
(§3) Depending on the species, the plants were kept at 10-25° C. and 20-35° C., respectively.
(§4) The test period extended over 2 to 4 weeks. During this time, the plants were tended and their response to the individual treatments was evaluated.
(§5) Evaluation was carried out using a scale from 0 to 100. 100 means no emergence of the plants, or complete destruction of at least the above-ground parts, and 0 means no damage or normal course of growth. A good herbicidal activity is given at values of at least 70, and very good herbicidal activity is given at values of at least 85.
(§6) If not stated differently, the respective components A and B, and if appropriate, C were formulated as a 5% by weight strength emulsion concentrate and, with addition of the amount of solvent system, introduced into the spray liquor used for applying the active compound.
(§7) As indicated application was either post emergent (POST) at the respective growth stage (GS) of the weed (BBCH code), or pre-emergent (PRE). […]

Commelina benghalensis = experiment: Greenhouse pre-emergence (PRE) herbicidal test on COMBE; details: Commelina benghalensis, pre-emergence, PRE, COMBE
Experimental: as §1
(§8) The containers were irrigated gently to promote germination and growth and subsequently covered with transparent plastic hoods until the plants had rooted.
as §3, §4, §5, §7

Abutilon theophrasti [1] = experiment: Greenhouse pre-emergence (PRE) herbicidal test on ABUTH; details: Abutilon theophrasti, pre-emergence
Experimental: as §1, §8, §3, §4, §5, §7

Echinochloa crus-galli = experiment: Greenhouse post-emergence (POST) herbicidal test on ECHCG
Experimental: as §1, §2, §3, §4, §5, §6, §7

Digitaria sanguinalis = experiment: Greenhouse post-emergence (POST) herbicidal test on DIGSA; details: for % activity: DIGSA POST
Experimental: as §1, §2, §3, §4, §5, §6, §7

Euphorbia heterophylla [2] = experiment: Greenhouse post-emergence (POST) herbicidal test on EPHHL; details: Euphorbia heterophylla, post-emergence, POST, EPHHL
Experimental: as §1, §2, §3, §4, §5, §6, §7

Abutilon theophrasti [3] = experiment: Greenhouse post-emergence (POST) herbicidal test on ABUTH; details: Abutilon theophrasti, post-emergence, POST, ABUTH
Experimental: as §1, §2, §3, §4, §5, §6, §7

Lolium multiflorum = experiment: Greenhouse pre-emergence (PRE) herbicidal test on LOLMU; details: Lolium multiflorum, pre-emergence
Experimental: as §1, §8, §3, §4, §5, §7

Ambrosia artemisiifolia = experiment: Greenhouse pre-emergence (PRE) herbicidal test on AMBEL; details: Ambrosia artemisiifolia, pre-emergence
Experimental: as §1, §8, §3, §4, §5, §7

Euphorbia heterophylla [4] = experiment: Greenhouse pre-emergence (PRE) herbicidal test on EPHHL; details: Euphorbia heterophylla, pre-emergence, EPHHL PRE
Experimental: as §1, §8, §3, §4, §5, §7

Alopecurus myosuroides = experiment: Greenhouse pre-emergence (PRE) herbicidal test on ALOMY; details: Alopecurus myosuroides, pre-emergence, ALOMY PRE
Experimental: as §1, §8, §3, §4, §5, §7

[5] = Digitaria sanguinalis, post-emergence, read-out: % activity

Structure (SMILES): CCNc1nc(Cl)nc(NC(C)C)n1 [Atrazine, atrazine]
- inhibition at 50 g/ha (Geranium pusillum; Geranium pusillum, post-emergence, 480 h, use rate 50 gai/ha): 30%
- inhibition at 100 g/ha (Geranium pusillum; Geranium pusillum, post-emergence, 480 h, use rate 100 gai/ha, read-out: % activity): 75%
- inhibition at 100 g/ha (Commelina benghalensis; 480 h, use rate 100 gai/ha, 20 DAT): 25%
- inhibition at 50 g/ha (Abutilon theophrasti [1]; 480 h, PRE, ABUTH, use rate 50 gai/ha, 20 DAT): 0%

Structure (SMILES): CCCCOC(=O)[C@@H](C)Oc1ccc(Oc2ccc(C#N)cc2F)cc1 [Cyhalofop-Butyl, cyhalofop-butyl]
- inhibition at 6.25 g/ha (Echinochloa crus-galli; Echinochloa crus-galli, post-emergence, read-out: % activity): 80%
- inhibition at 6.25 g/ha (Digitaria sanguinalis; [5]): 35%
- inhibition at 25 g/ha (Digitaria sanguinalis; [5]): 70%

Structure (SMILES): COc1c(Cl)ccc(Cl)c1C(=O)O [Dicamba, dicamba]
- inhibition at 31.25 g/ha (Euphorbia heterophylla [2]; use rate 31.25 gai/ha): 10%
- inhibition at 62.5 g/ha (Euphorbia heterophylla [2]; use rate 62.5 gai/ha): 35%
- inhibition at 31.25 g/ha (Abutilon theophrasti [3]; use rate 31.25 gai/ha): 60%
- inhibition at 62.5 g/ha (Abutilon theophrasti [3]; use rate 62.5 gai/ha): 65%

Structure (SMILES): CCOC(=O)COc1ncccc1Oc1cc(-n2c(=O)cc(C(F)(F)F)n(C)c2=O)c(F)cc1Cl [Epyrifenacil, epyrifenacil]
- % activity (Echinochloa crus-galli; ECHCG POST, use rate 1 gai/ha): 45%
- % activity (Digitaria sanguinalis; use rate 0.5 gai/ha): 20%
- % activity (Digitaria sanguinalis; use rate 1 gai/ha): 55%

Structure (SMILES): CCOC1Oc2ccc(OS(C)(=O)=O)cc2C1(C)C (stereo not shown) [Ethofumesate, ethofumesate]
- inhibition at 1000 g/ha (Lolium multiflorum; 480 h, PRE, use rate 1000 gai/ha, 20 DAT): 60%
- inhibition at 250 g/ha (Ambrosia artemisiifolia; 480 h, PRE, use rate 250 gai/ha, 20 DAT): 0%

Structure (SMILES): CCc1cnc(C2=NC(C)(C(C)C)C(=O)N2)c(C(=O)O)c1 (stereo not shown) [Imazethapyr, imazethapyr]
- inhibition at […] (Commelina benghalensis; use rate 7.5 gai/ha, read-out: % activity): 30%
- inhibition at 15 g/ha (Commelina benghalensis; use rate 15 gai/ha): 70%
- inhibition at […] (Abutilon theophrasti [1]; PRE, ABUTH, use rate 7.5 gai/ha, read-out: % activity): 60%
- inhibition at 15 g/ha (Lolium multiflorum; PRE, LOLMU, use rate 15 gai/ha): 40%
- inhibition at […] (Ambrosia artemisiifolia; PRE, AMBEL, use rate 7.5 gai/ha, read-out: % activity): 0%
- inhibition at 15 g/ha (Ambrosia artemisiifolia; PRE, AMBEL, use rate 15 gai/ha): 10%

Structure (SMILES): CS(=O)(=O)c1cc(C(F)(F)F)ccc1C(=O)c1cnoc1C1CC1 [Isoxaflutole, isoxaflutole]
- inhibition at 6.3 g/ha (Euphorbia heterophylla [4]; use rate 6.3 gai/ha): 45%
- inhibition at 25 g/ha (Euphorbia heterophylla [4]; use rate 25 gai/ha): 75%
- inhibition at 6.3 g/ha (Alopecurus myosuroides; use rate 6.3 gai/ha): 0%
- inhibition at 25 g/ha (Alopecurus myosuroides; use rate 25 gai/ha): 0%
- inhibition at 6.3 g/ha (Abutilon theophrasti [1]; ABUTH PRE, use rate 6.3 gai/ha): 45%
- inhibition at 6.3 g/ha (Lolium multiflorum; LOLMU PRE, use rate 6.3 gai/ha): 0%
- inhibition at 6.3 g/ha (Ambrosia artemisiifolia; AMBEL PRE, use rate 6.3 gai/ha): 25%

Structure (SMILES): CP(=O)(O)CC[C@H](N)C(=O)O.N [L-Glufosinate-P-Ammonium]
- % activity (Geranium pusillum; use rate 75 gai/ha): 65%
- % activity (Echinochloa crus-galli; POST, ECHCG, use rate 75 gai/ha, 20 DAT): 30%
